Experiments:
[1] = system: C7-8 spinal cord motor neurons; assay: Motor neuron axotomy (median and ulnar nerve) in neonatal rat; type: in vivo; conditions: P4 rat pups, peptide in gel foam at axonal stump, 5-day recovery, relative to contralateral side
Experimental: Median and ulnar nerve axotomy was performed on 4 day-old Wistar rat pups as previously described (Cheema et al., 1996). Peptides (c29 and vehicle only; 100 nM) were applied via a 1 mm^3 cube of pluronic gel foam that was sutured to the proximal axonal stump (Cheema et al., 1996). After 5 days the animals were perfused with a 4% solution of paraformaldehyde in phosphate buffer. Cervical spinal cords were removed, after which serial sections were cut at 40 μm, mounted onto gelatin-coated slides and stained in 0.1% cresyl violet. Details of the counting procedure have been described previously (Cheema et al., 1994).
We next investigated whether c29 could prevent motor neuron death following growth factor withdrawal in vivo using a neonatal rat axotomy model. Following unilateral median and ulnar nerve transections of postnatal day 4 (P4) rat pups, c29 or the vehicle protein transduction domain (PTD4) was applied to the proximal site of transaction in a small cube of gel foam. After a 5-day recovery, the number of surviving C7-8 spinal cord motor neurons relative to the contralateral side was determined by histological counts. Such an axotomy causes 50% of the ipsilateral motor neurons to die (Cheema et al., 1996), with control peptide treatment having no effect on this degree of cell death (FIG. 7E, F). […]

PC12 cells = assay: NGF-FITC binding by flow cytometry, PC12 cells; conditions: for % of cell population with FITC above background / Maximal fluorescence per cell of the population / Mean fluorescence per FITC-positive cell / Median population fluorescence: NGF-FITC
Experimental: The NGF was conjugated to FITC by standard methods and detailed flow cytometry acquisition and analysis. For NGF-FITC conjugation 400 μg βNGF in 200 μl pH 8.5 NaHCO3 buffer was mixed with 5-10 μl of 10 mg/ml FITC in 100 μl DMSO for 10 hours at 4° C. on an orbital shaker set to 100 rpm. The excess FITC was removed by dialysis against 3 changes of 5 L of 10 mM Tris, 150 mM NaCl, 0.2% acetic acid, pH 8.2 for 24 hours at 4° C. Conjugate F/P characterization was determined by measuring absorbance at 280 nm and 495 nm according to manufacturer's instructions. Biological activity of the NGF-FITC conjugate was tested by performing PC12 cell neurite outgrowth assays unlabelled NGF, and comparing the levels of neuritogenesis. NGF-FITC conjugates were used within 4 weeks of synthesis.
For the flow cytometry NGF binding assays, fluorescence cell parameters of at least 20,000 events for PC12 cells and 100,000 events for HEK293 cells were acquired by flow cytometry list mode and measurements were performed on a single cell basis (with compensation for double event counting). Dead cells and debris were gated out of the analysis on the basis of forward scatter fluorescence, and mean, median and maximal fluorescence values of the gated cell populations were analysed using FACS Diva Software (Becton-Dickinson Biosciences) and FACS Express Software (Becton-Dickinson Biosciences).
Background fluorescence of HEK293 cells was non-transfected cells (±c29 or scrambled peptide treatment) treated with 26 nM NGF-FITC. For PC12 cells, the control population was cells that had not been treated with NGF-FITC. Analysis of real-time NGF-FITC receptor binding experiments was performed on 550,000-600,000 cells at 4° C. in serum free NB medium and binding kinetics were calculated from raw data files compressed to 50,000 binding events using FlowJo and MatLab Software. Data was plotted with the use of GraphPad Prism.
Only NGF-FITC preparations that promoted equivalent neurite outgrowth of PC12 cells to that of unlabelled NGF were used in binding experiments. To investigate NGF binding, PC12 or transfected HEK293 cells were serum starved for 4 hours, harvested, washed with Dulbecco's Modified Eagle Medium (DMEM), and counted. When used, c29 or scrambled peptide were added to cultures for the third hour of the serum starvation procedure. 1×10^7 cells/ml suspended in 500 μl of serum-free DMEM were incubated with 26 nM NGF-FITC on ice for 60 minutes before analysis. For binding competition assays, following 1 hour in NGF-FITC, cells were washed with ice-cold PBS containing 0.1% normal bovine serum and incubated on ice with unlabeled NGF at concentrations ranging from 100 pM to 10 μM for 30 minutes, then washed twice in PBS before being analysed on a BD Flow Cytometer FACS Scan (Becton-Dickinson).
First, to determine the concentration of c29 required to modulate NGF binding, c29 levels were titrated with a fixed concentration of NGF-FITC.

pErk1/2 and pAkt = assay: Western blot of pErk1/2 and pAkt in PC12 cell lysates; type: cell-based; conditions: 24 hours
Experimental: In biochemical experiments, PC12 and HEK293 cells were lysed for 20 minutes on ice in lysis buffer as described by (Ceni et al., 2010). Briefly, the lysis buffer contained 10 mM Tris-HCl, 150 mM NaCl, 2 mM EDTA, 1% (v/v) NP-40, 1% (v/v) TX-100, 10% Glycerol, 1 mM PMSF, 1 mM Sodium Orthovanadate, 1 μM BB94, 1% (v/v) Roche protease inhibitor cocktail and pH 8.0 (Ceni et al., 2010).
Immunoprecipitation was performed by the addition of 75 μl (1:2) protein-G sepharose: PBS and incubation end-over-end for 16 hours at 4° C. The immunoprecipitate was washed 4 times with 1 ml of PBS then eluted in 60 μl 2×LDS sample buffer. For immunoblotting, samples were boiled for 5 minutes, separated by SDS-PAGE and transferred onto nitrocellulose membranes, then western blotted using standard protocols (see Example 1 for antibodies used).
The observed functional effects on neurite outgrowth and survival were next correlated with enhanced activation of signal transduction pathways that mediate the trophic effects of TrkA. Lysates of cells treated for 24 hours with NGF alone or in combination with c29 or scrambled peptide were immunoblotted for pErk1/2 (neurite outgrowth), and the serine/threonine protein kinase Akt (survival). […] Total levels of Erk1/2 or Akt were unaffected by any treatment (FIG. 6 A, B).

[2] = 10 ng/ml NGF, relative to 10 ng/ml NGF and scrambled peptide

KRWNSCKQNKQGANSRPVNQTPPPEGEKL (c29- Fragment of p75ICD) [29 amino acid peptide of the p75NTR juxtamembrane Chopper domain; delivered to cells linked to PTD4 or disulfide-linked carrier]
axotomised neurons that died [1]: 12% | % of cell population with FITC above background (PC12 cells; c.f. PC12): 115.7 ± 19.7% | Maximal fluorescence per cell of the population (PC12 cells; c.f. PC12): 123.6 ± 17.3% | Mean fluorescence per FITC-positive cell (PC12 cells; c.f. PC12): 126.3 ± 4.8% | Median population fluorescence (PC12 cells; c.f. PC12): 127.4 ± 8.1% | % of cell population with FITC above background (PC12 cells; c.f. PC12 + SC): 115.3 ± 13.4% | Maximal fluorescence per cell of the population (PC12 cells; c.f. PC12 + SC): 123.1 ± 5.2% | Mean fluorescence per FITC-positive cell (PC12 cells; c.f. PC12 + SC): 121.4 ± 5.5% | Median population fluorescence (PC12 cells; c.f. PC12 + SC): 122.5 ± 8.4% | all measured fluorescence parameters of the FITC-positive population (PC12 cells; PC12 cells, compared to control or scrambled peptide-treated cells): increased | c29 concentration at which an increase in median fluorescence was observed (PC12 cells; fixed concentration of NGF-FITC, FIG. 10A): 1 pM | increase in pAkt (pErk1/2 and pAkt; [2]): 2 fold | increase in pErk1/2 (pErk1/2 and pAkt; [2]): 2 fold | pAkt signalling (pErk1/2 and pAkt; absence of NGF): no effect | pErk1/2 signalling (pErk1/2 and pAkt; absence of NGF): no effect
